Results as given in ChEMBL document CHEMBL1153647, “Inhibitors of human leukocyte elastase. 3.1 inhibition by tetrahydrobenzisothiazolinylmethyl aryl carboxylates” (Bioorg Med Chem Lett, 1995).

How the values were obtained:
Neutrophil elastase [1] = biological target: T1, Neutrophil elastase (Homo sapiens, UniProt P08246); assay: Ratio of Kreact to that of Kinact was determined on human leukocyte elastase(HLE)
T1 sequence (P08246 whole entry): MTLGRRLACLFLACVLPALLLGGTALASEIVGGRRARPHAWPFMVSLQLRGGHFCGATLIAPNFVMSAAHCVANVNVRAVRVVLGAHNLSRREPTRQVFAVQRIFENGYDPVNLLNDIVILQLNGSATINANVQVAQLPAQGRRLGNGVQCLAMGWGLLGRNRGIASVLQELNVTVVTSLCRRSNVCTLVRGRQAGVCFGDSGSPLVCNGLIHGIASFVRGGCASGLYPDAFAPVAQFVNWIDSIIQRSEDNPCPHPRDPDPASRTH

[2] = biological target: T2, Neutrophil elastase (Homo sapiens) (UniProt P08246)
T2 sequence (whole entry): T1 sequence (P08246 whole entry)
Description: (§1) Compound was evaluated for the inhibitory activity against Human leukocyte elastase (HLE)

Neutrophil elastase [3] = biological target: T1, Neutrophil elastase; assay: Observed binding affinity against Human leukocyte elastase (HLE)
[4] = biological target: T2, Neutrophil elastase (Homo sapiens); remark: listed apart in the source
Description: as §1

[5] = biological target: T2, Neutrophil elastase (Homo sapiens); assay: Compound was evaluated for the inhibitory activity against Human leukocyte elastase

| SMILES | Ki (Neutrophil elastase [1]) [nM] | K inact [2] [M⁻¹ s⁻¹] | Ki (Neutrophil elastase [3]) [nM] | Kreact [4] [s⁻¹] | K inact [5] [M⁻¹ s⁻¹] | Kreact [5] [s⁻¹] |
| --- | --- | --- | --- | --- | --- | --- |
| O=C(OCN1C(=O)C2=C(CCCCC2)S1(=O)=O)c1c(Cl)cccc1Cl | 100 | – | – | – | – | – |
| O=C(OCN1C(=O)C2=C(CCCC2)S1(=O)=O)c1c(Cl)cccc1Cl | – | – | – | – | 3300 | 5.9e-05 |
| CC(C)c1cccc2c1C(=O)N(COC(=O)c1c(Cl)cccc1Cl)S2(=O)=O | – | 900000 | – | 2.7e-05 | – | – |
| CCc1cccc2c1C(=O)N(COC(=O)c1c(Cl)cccc1Cl)S2(=O)=O | – | – | 0.0708 | – | – | – |

Continued, values first:

| Ki (Neutrophil elastase [1]) [nM] | K inact [2] [M⁻¹ s⁻¹] | Ki (Neutrophil elastase [3]) [nM] | Kreact [4] [s⁻¹] | K inact [5] [M⁻¹ s⁻¹] | Kreact [5] [s⁻¹] | SMILES |
| --- | --- | --- | --- | --- | --- | --- |
| 0.8 | – | – | – | – | – | O=C(OCN1C(=O)C2=C(C3CCC2C3)S1(=O)=O)c1c(Cl)cccc1Cl (stereo not drawn) |
| 1 | 10000 | 1 | 1e-05 | – | – | CC(C)C1CCCC2=C1C(=O)N(COC(=O)c1c(Cl)cccc1Cl)S2(=O)=O (stereo not drawn) |
| 0.7 | 83000 | 0.708 | 5.8e-05 | – | – | CCC1CCCC2=C1C(=O)N(COC(=O)c1c(Cl)cccc1Cl)S2(=O)=O (stereo not drawn) |
| 1 | 18500 | – | 1.8e-05 | – | – | CC1(C)CCCC2=C1C(=O)N(COC(=O)c1c(Cl)cccc1Cl)S2(=O)=O |
| 1 | 36000 | 1 | 3.6e-05 | – | – | CC1CCCC2=C1C(=O)N(COC(=O)c1c(Cl)cccc1Cl)S2(=O)=O (stereo not drawn) |
| 5 | – | – | – | – | – | O=C(OCN1C(=O)C2=C(CCC2)S1(=O)=O)c1c(Cl)cccc1Cl |
